A melting point compilation (Tetko et al.; mined from patent text by program, amines drawn as free bases though some values may be those of a salt)

melting point | Compound
206 to 209 °C | COC(=O)c1cc(C(C)(C)C)c(OC(=O)c2cc(C(C)(C)C)c(O)c(C(C)(C)C)c2)c(C(C)(C)C)c1
183 °C | Cc1nc2c(C#N)ncn2c(Cl)c1-c1c(F)cc(F)cc1F
275 to 277 °C | CC(C)c1cccc(C(C)C)c1NC(=O)CN1C(=O)N(c2ccccc2)C2(CCCC2)C1=O
173 to 176 °C | CC(c1oc2ccccc2c(=O)c1-c1cccc(F)c1)n1ncc2c(Cl)ccnc21 (stereo not drawn)
128 °C | O=P(O)(O)C1=CCCCC1
90 to 91.5 °C | ClC(Cl)(Cl)c1nnc(-c2cccc3ccccc23)o1
180 to 183 °C | COC(=O)NC1=NC(c2cccc(O)c2)CN1 (stereo not drawn)
130 to 133 °C | C#CC[C@H](c1nc2cc(Cl)ccc2c(=O)n1Nc1ccccc1)N(CCCN)C(=O)c1ccc(C)cc1
78 to 83 °C | Cn1cc(C(=O)NCCCO)c(Nc2ccc(Br)cc2F)cc1=O
195 °C | C#CCOc1cc(OCC=C)ccc1-c1nc2cnccc2[nH]1
143 to 144 °C | CCCCCCCCCC(CCCCCCCCC)N1C(=O)c2ccc3c4cccc5cccc(c6ccc(c2c36)C1=O)c54
183 to 185 °C | COc1ccc(C(=O)Nc2ccccc2)cc1NC(=S)Nc1cccc(C#N)c1
57 to 59 °C | CCOC(=O)c1ccc(NC(C)=O)c(CN(CC)CC)c1
113 to 115 °C | CC(Oc1ccc(F)cc1)C(=O)O (stereo not drawn)
168 to 174 °C | COc1cc(C(=O)NN2CCN(C)CC2)ccc1Nc1ncc2c(n1)N(C1CCCC1)CC(F)(F)C(=O)N2C
83 to 85 °C | CN1CCN(C2=Nc3ccccc3N(C)c3cscc32)CC1
175 to 176 °C | CC(C)(C)Nc1nc2cc(CC(=O)O)ccc2o1
> 250 °C | CS(=O)(=O)c1c(C(=O)NN=Cc2cccc3ccccc23)[nH]c2ccccc12
193 to 194 °C | CCCOc1ccccc1-c1nc2nc(NCC(C)OC)ncc2c(=O)[nH]1 (stereo not drawn)
146 to 148 °C | COc1cc(Nc2c(C#N)cnc3cc(-c4cccc(CCN5CCOCC5)c4)ccc23)c(Cl)cc1Cl
133 to 137 °C | O=C(O)COc1cccnc1-c1ccc(Cl)c(C(=O)NCC23CC4CC(CC(C4)C2)C3)c1
126 to 127 °C | CCOC(CNN)OCC
156 to 157 °C | COc1cc(OCCCN(C)Cc2ccc(OC)c(OC)c2)ccc1NC(=O)c1cccc2c(=O)c3cccc(C)c3[nH]c12
131 to 133 °C | CC(C)(C)C(=O)OC(COc1cccc2[nH]nnc12)CN1CCC(COc2ccccc2)CC1 (stereo not drawn)

melting point | Compound
59 to 64 °C | CCCCCCCCc1ccc(C(=O)Cc2cccc(C#N)c2)cc1
67 to 72 °C | CC(CCCc1ccccc1)Oc1cc(O)c2c(c1)CC(C)(C)CC2CC(N)=O (stereo not drawn)
262 to 263 °C | COc1c(F)ccc2c1C(C)(C)CC(O)(C(F)(F)F)C2Nc1cccc2c(=O)n(C)ncc12 (stereo not drawn)
248 to 250 °C | COc1cc(C(=O)O)ccc1Cc1cccc2ccc(NC(=O)CC3CCCC3)cc12
167 to 169 °C | Cc1c(Cl)c(F)cc(C(=O)O)c1Cl
195 to 197 °C | NC(=O)C(Br)c1c(Cl)cc([N+](=O)[O-])cc1Cl (stereo not drawn)
188 to 189 °C | O=C(NCCO)c1cccc(-c2cccc3nn(Cc4cc(F)cc(Cl)c4)cc23)c1
118 °C | O=S(=O)(c1ccccc1)c1n[nH]c2ccccc12
118 to 120 °C | COc1cc2ncc(C#N)c(Nc3ccc4sc(C)nc4c3)c2cc1OC
174 to 176 °C | COc1cc(C(O)C#Cc2c(C)nc(N)nc2N)cc(OC)c1OC (stereo not drawn)
203 to 208 °C | COc1cccc(C=C2N=C(c3ccc([N+](=O)[O-])cc3)OC2=O)c1OC
129 to 130 °C | COC(=O)c1ccc(C(=O)N2CCN(c3ncccc3[N+](=O)[O-])CC2)nc1
73 to 74 °C | N#Cc1ccc(-c2nc(COc3ccc(CCCn4ccnc4)cc3)co2)s1
52 to 54 °C | CN(C)c1ccc2sccc2c1
173 to 175 °C | CN(C)c1c(F)c(F)c(F)c2c1c(=O)c(C(=O)O)cn2C1COC1
92 to 93 °C | Cc1c(Cl)cc(O)cc1Cl
69 °C | CCCN(CCC)C(N)=O
49 to 51 °C | CC1=C(C)C(=O)C(CCCCC#CCCCC#CC(=O)O)=C(C)C1=O
98 to 100 °C | CC(C)NC(=N)NC(=N)NOCCCOc1ccc(Cl)cc1
285 to 287 °C | O=c1[nH]c2cnccc2c2nc(-c3ccccc3F)nn12
202 to 205 °C | CN(C)CCc1ccc(O)c2c1=NS(=O)(=O)N=2
147 to 149 °C | O=C(O)C(=O)CC(=O)c1cccn1Cc1cccc(F)c1
158 °C | CCOc1nn(C(=O)NS(=O)(=O)c2c(C)csc2C)c(=O)n1C
117 to 119 °C | CCCCNC(=O)NS(=O)(=O)c1c(C(=O)OCC)cnn1C

melting point | Compound
119 to 121 °C | Nc1ccc(OCCCCN2C(=O)c3ccccc3C2=O)cc1
100 to 103 °C | Cn1c(C(F)(F)F)cc(=O)n(-c2cc(OCCCl)c(Cl)cc2F)c1=O
209 °C | Cc1ccc(Nc2ncc(C#N)c(-c3ccc(C(C)(C)N)cc3)n2)cc1F
204 to 205 °C | O=c1ccn(-c2cccc(C(F)(F)F)c2)nc1-n1ccnc1-c1ccccc1
148 to 151 °C | CC(ON=C(C(=O)O)c1ccc(O)c(Cl)c1)C(=O)OC(C)(C)C (stereo not drawn)
64 to 66 °C | CCOCOC1CCC2(C)C(=CCC3C2CCC2(C)C(C(C)CCCC(C)C)CCC32)C1 (stereo not drawn)
142 to 144 °C | COc1cc(C(=O)NS(=O)(=O)c2ccccc2C)ccc1Cc1cn(C)c2ccc(C(=O)NC[C@H](C)CC(F)(F)F)cc12
138 to 140 °C | CC(C)C[C@@H](C(=O)OCc1ccccc1)N1C(=O)[C@@H](N2C(=O)OC[C@@H]2c2ccccc2)[C@H]1CCc1ccccc1
212 °C | CO/C(=C\C=C\c1cc2cc(Cl)c(Cl)cc2[nH]1)C(=O)NC1CC(C)(C)N(C)C(C)(C)C1
183 °C | COC(=O)C1=C(O)c2cc(OC)ccc2S(=O)(=O)N1
176 to 178 °C | COc1ccc(-n2nc(Sc3ccc(S(C)=O)cc3)c(C)c(C#N)c2=O)cc1 (stereo not drawn)
192 °C | Cc1cnc(-c2cc(=S)ss2)cn1
104 to 105 °C | O=C1NCC(Cc2ccccc2)O1 (stereo not drawn)
160 to 163 °C | CC1=NN(c2ccc(C(=O)O)cc2)C(=O)C1Cc1ccc(-c2cc(C)c(C)cc2[N+](=O)[O-])o1 (stereo not drawn)
86 to 89 °C | COC(=O)C1CCC2C3CCC4CC(=O)CCC4(C)C3C(NCCC(C)C)CC12C (stereo not drawn)
143 to 144 °C | O=C(Nc1ccc(Cl)nc1)c1ccc(Cl)o1
149 to 152 °C | COc1cc2c(cc1-c1ccccc1)CCN=C2C1(c2ccccc2Cl)CCC1
50 °C | CCn1cc(CCC(=O)O)c2ccccc21
136 to 138 °C | CC(C)C(=O)NS(=O)(=O)c1cccc([N+](=O)[O-])c1
169 to 172 °C | COc1cc2c(=O)c(Cc3cccnc3)cn3c4cc(Br)ccc4c(c1)c23
192 to 200 °C | CS(=O)(=O)Nc1ccc(S(=O)(=O)N2CCNc3nc4ccccc4n3CC2)cc1
164 to 166 °C | CC(C)N(CCN1C(=O)/C(=N/NC(=O)NC2CCCCC2)c2ccccc21)C(C)C
215 to 217 °C | O=C(O)COc1cccc2c1CC(S(=O)(=O)Cc1ccccc1)c1sc(-c3cccc(F)c3)nc1-2 (stereo not drawn)
58 to 65 °C | CCCCCCCCCCCCCCCCCCOC(=O)CCc1cc(C(C)(C)C)c(OP2Nc3ccccc3O2)c(C(C)(C)C)c1 (stereo not drawn)

melting point | Compound
143 to 145 °C | O=C(C=Cc1cccnc1)NCCCCC1CCN(C(Br)(c2ccccc2)C2CCCCC2)CC1 (stereo not drawn)
109 to 110 °C | COc1ccc(C(=O)c2ccc(OCc3nc(-c4ccccc4)oc3C)cc2C)c(O)c1
202 °C | COc1ccc(NC(=O)Nc2ccc(Cl)c(Cl)c2)cc1NC(=S)Nc1cc(Cl)cc(Cl)c1
116 to 118 °C | CCCc1c(CSc2nnc(SCC(=O)O)s2)ccc(C(C)=O)c1O
207 to 215 °C | COc1cc(OCc2ccncc2)ccc1/C=C/c1cc(/C=C/c2cccc3[nH]ccc23)n[nH]1
253 to 254 °C | O=C(O)Cc1c(C(=O)c2ncc[nH]2)[nH]c2ccc(Cl)cc12
127 to 129 °C | Cc1c(Br)c(=O)n(-c2cc(C(=O)OC(C)C)c(Cl)cc2F)c(=O)n1C
67 °C | CCCCCCCNC(=O)Oc1ccc2c(c1)CCCN2
141 to 144 °C | CCC(=O)c1cc(C(=O)OC)c(N)cc1C(F)(F)F
172 to 173 °C | CC#CCOc1ccc(SC(C(=O)NO)c2ccccc2OC)cc1 (stereo not drawn)
166 °C | NC(=O)C(N)c1c(Cl)cccc1Cl (stereo not drawn)
210 °C | CC(=O)Nc1cc(NS(=O)(=O)CCl)c(Cl)cc1F
89 to 91 °C | CC(C)(NCC(O)Cn1ccnc1)c1ccc(Cl)cc1 (stereo not drawn)
112 to 113 °C | CS(=O)CCNC(=O)c1cccc(-c2ccc3c(c2)C(c2ccc(Cl)cc2Cl)CC3)c1 (stereo not drawn)
72 to 74 °C | CC(CO)(Cc1c[nH]c2ccccc12)NC(=O)OC1C2CC3CC(C2)CC1C3 (stereo not drawn)
100 to 102 °C | CCOC(=O)CCCCOc1ccc(OCC(F)(F)F)cc1C(=O)NCC1CCCCN1 (stereo not drawn)
165 to 167 °C | COc1cccc(CNC(=O)c2cc3c(=O)n(CCOc4ccc(Br)cc4)c(=O)n(C)c3s2)c1
152 to 156 °C | Cc1ncc(CN2C(=O)c3ccccc3C2=O)n1-c1ccc(Cl)cc1Cc1ccccc1F
233 to 237 °C | CC(C)(O)c1cnn2c(-c3ccc(F)c(-c4ccncc4)c3)cnc2n1
170 °C | Nc1n[nH]c2c(F)cccc12
147 to 150 °C | CCOC(=O)Cc1cn(C)c2cc(C3CC3)nn2c1=O
252 to 256 °C | CC1(C)CCC(C)(C)c2cc(C#Cc3ccc(C(=O)O)cc3)ccc21

Compound | melting point
COc1ccc(CN2CCC(c3cn(Cc4ccoc4)c4ccccc34)CC2)cc1C(=O)O | 253 to 255 °C
COCC(=O)C1CCC2C3CCC4CC(O)CCC4(C)C3CCC12C (stereo not drawn) | 163 to 164 °C
O=C(OCC1CC1)c1ncn2c1[C@@H]1CCCN1C(=O)c1cc(F)ccc1-2 | 140 to 142 °C
COc1cc(N)c(Cl)cc1C(=O)N[C@H]1CCN(CCCC(=O)N2CCC(=O)CC2)C[C@H]1OC (relative stereo) | 157 °C
